Assay results published in patent US11311553B1, “Methods of treating 4-repeat tauopathies” (priority 2020, dated 2022).

Legend:
PSP = conditions: literature clinical trials in PSP patients; cited from earlier work
[1] = 1-hydroxy (M3) metabolite formed in vivo; cited from earlier work
[2] = system: subjects with probable or possible PSP; experiment: Fasudil treatment of subjects with probable or possible PSP, assessed at baseline, six months and one year; type: in vivo, human; conditions: fasudil 180 mg/day (60 mg tid)

Molecule | clinical effect / benefit in PSP (PSP) | further results
CC[C@H](C)[C@H](NC(=O)[C@H](CO)NC(=O)[C@@H](NC(=O)[C@@H]1CCCN1C(=O)[C@H](C)NC(=O)[C@@H](N)CC(N)=O)C(C)C)C(=O)N1CCC[C@H]1C(=O)N[C@@H](CCC(N)=O)C(=O)O [Davunetide] | not shown not to be effective | –
O=S(=O)(c1cccc2c(O)nccc12)N1CCCNCC1 [M3, hydroxyfasudil] | – | half-life [1]: about 8 hours
O=C(Oc1ccccc1C(=O)O)c1ccccc1O [Salsalate] | failed | –
C=CC1O[C@H]2C[C@H]3OC[C@@]3(OC(C)=O)[C@H]3[C@H](OC(=O)c4ccccc4)[C@]4(O)C[C@H](OC(=O)[C@H](O)[C@H](CC(C)C)NC(=O)OC(C)(C)C)C(C)=C([C@H](OC(C)=O)[C@H](O1)[C@]23C)C4(C)C (some centres unmarked) [TPI 287] | failed to show any effect | –
COC1=C(OC)C(=O)C(C/C=C(\C)CC/C=C(\C)CC/C=C(\C)CC/C=C(\C)CC/C=C(\C)CC/C=C(\C)CC/C=C(\C)CC/C=C(\C)CC/C=C(\C)CCC=C(C)C)=C(C)C1=O [coenzyme Q10] | failed to provide benefit | –
Cl.O=S(=O)(c1cccc2cnccc12)N1CCCNCC1 [fasudil, Hexahydro-1-(5-isoquinolinesulfonyl)-1H-1,4-diazepine monohydrochloride hemihydrate] | – | Oculomotor parameters [2]: improve; sleep parameters [2]: improve
Nc1nc2ccc(OC(F)(F)F)cc2s1 [riluzole] | failed to demonstrate effects | –
O=c1sn(-c2cccc3ccccc23)c(=O)n1Cc1ccccc1 [tideglusib] | failed to show benefit | –
ABBV-8E12: humanized anti-tau monoclonal antibody (antibody, chains of the INN, looked up, V domains shown) VH: EVKVVESGGGLVQPGGSMKLSCVVSGFTFSNYWVNWVRQAPGKGLEWVAQIRLKSDNYATHYEESVKGRFTISRDDSKSSVYLQMNNLRAEDSGIYYCTNWEDYWGQGTTVTVSS VL: DIVLTQSPDSLAVSLGERATISCRASQSVSTSRYSYIHWYQQKPGQPPKLLIKYASNLESGVPSRFSGSGSGTDFTLNIHPLEPEDFATYYCHHSWEIPLTFGQGTKLEIK | failed to demonstrate an effect | –
Gosuranemab: a humanized monoclonal antibody that targets N-terminal tau (antibody, chains of the INN, looked up, V domains shown) VH: EVHLVESGGALVKPGGSLRLSCAASGFSFSKYGMSWVRQAPGKGLEWVATISSSGSRTYYPDSVKGRFTISRDNAKNTLYLQMNSLRAEDTAMYYCSISWDGAMDYWGQGTTVTVSS VL: DVVMTQSPLSLPVTLGQPASISCKSSQSIVHSNGNTYLEWYLQKPGQSPQLLVYKVSNRFSGVPDRFSGSGSGTDFTLKISRVEAEDVGTYYCFQGSLVPWAFGGGTKVEIK | no effect | –
